Our source for the Papp A→B values is US20240271329A1, “CYCLIC COMPOUND LIBRARY AND CONSTRUCTION METHOD THEREFOR” (Yafei Shanghai Biology Medicine Science & Technology Co. …, priority 2021, published 2024).

A short description of the series: MDCK monolayer membrane permeability (A→B transport). The note with it: dog. The series is classed as in vitro ADME, canine. The protocol:
In order to determine the cyclic peptide compounds 9-12 obtained in the above examples, an MDCK model was established to determine their membrane permeability. The MDCK cell line was sourced from Madin Darby canine epithelial cell lines, and the monolayer MDCK cell was the best cytological model to study the in vivo processes such as absorption and reabsorption of drugs in renal tubules. The MDCK cells in a disperse culture flask were digested, and seeded to Millicell CPI at 5×10^4/cm^2; 400 μL of MEM culture solution containing 10% FBS was added to a side A (a luminal side, Apical), and 800 μL of the MEM culture solution was added to a side B (a basolateral side); and the mixture was incubated in an incubator containing 5% CO2 at 37° C. The solution was changed every day. It should be noted that a pipette should not to touch a cell membrane, thereby avoiding damaging the cell layer; and the transmembrane resistance (i.e., trans-epithelial electrical resistance, TEER) was regularly measured by using Millicell2ERS to test the integrity of the cell monolayer.
The A→B transport from the apical end (A) to the basolateral end (B) of the monolayer membrane of the MDCK cells was observed. For the determination of A→B, 450 μL of a drug or a positive control HEPES solution was added to the apical end of the membrane as a feeding cell, and 1300 μL of a blank HEPES solution was added to the basolateral end as a receiving cell. A Transwell plate was placed on a constant-temperature shaker at 37° C. and shaken; after 90 min, a sample solution was extracted respectively from the feeding cell and the receiving cell; acetonitrile was added to precipitate proteins, and then vortexing, centrifuging and transferring were carried out; and the permeance was measured by LC/MS. Based on this permeance, a membrane permeance coefficient (Papp, i.e., apparent permeability, which was a specific evaluation parameter) was calculated. The Papp greater than 1×10^−6 cm/s indicated the absorption of more than 60% of a drug, and the Papp greater than 10×10^−6 cm/s indicated the absorption of more than 80% of drug molecules.

[1] abbreviates: MDCK A→B, not, read-out: Papp values.
The mark [2] stands for this setting: apical to basolateral, MDCK monolayer, 37° C., 90 min, LC/MS, read-out: MDCK Papp(A − B).

Read-outs that look alike come from different tables or passages of the source. Square brackets hold non-standard residues; d marks the D form. Peptide text beside a SMILES is read from it. * marks the point of attachment. ξ: configuration not given here. Phe(3-CF3) = N[C@@H](Cc1cccc(C(F)(F)F)c1)C(=O)O; NMeF = CN[C@@H](Cc1ccccc1)C(=O)O; 3Pal = N[C@@H](Cc1cccnc1)C(=O)O; Cha = N[C@@H](CC1CCCCC1)C(=O)O; Cit = NC(=O)NCCC[C@H](N)C(=O)O; NMeL = CN[C@@H](CC(C)C)C(=O)O; ξP = O=C(O)C1CCCN1; OtBu = CC(C)(C)O*; Sar = CNCC(=O)O Bounds are passed on as bounds.

Regarding `CC(C)C[C@@H]1NC(=O)CNC(=O)[C@H](CC(N)=O)NC(=O)C2CCCN2C(=O)[C@H]2CCCN2C(=O)[C@H](CCC(=O)OC(C)(C)C)NC(=O)CN(C)C(=O)[C@H](Cc2cccc(C(F)(F)F)c2)NC(=O)[C@H](CC(C)C)N(C)C(=O)[C@H](Cc2ccccc2)N(C)C1=O` (stereo partly drawn) [Compound 9] (cyclo(E(OtBu)[dP][ξP]NGL[NMeF][NMeL][Phe(3-CF3)][Sar])), the Papp A→B at 90 min runs as follows: under setting [1], over 10 ×10⁻⁶ cm/s; under setting [2], 11.3 ×10⁻⁶ cm/s.

For `CC(C)C[C@@H]1NC(=O)CNC(=O)[C@H](CC(N)=O)NC(=O)C2CCCN2C(=O)[C@H]2CCCN2C(=O)[C@H](CCC(=O)OC(C)(C)C)NC(=O)CN(C)C(=O)[C@H](Cc2cccnc2)NC(=O)[C@H](CC(C)C)N(C)C(=O)[C@H](Cc2ccccc2)N(C)C1=O` (stereo partly drawn) [Compound 10] (cyclo([3Pal][Sar]E(OtBu)[dP][ξP]NGL[NMeF][NMeL])), under setting [2], the Papp A→B at 90 min worked out at 4.8 ×10⁻⁶ cm/s.

With `CC(C)C[C@@H]1NC(=O)CNC(=O)[C@H](CC(N)=O)NC(=O)C2CCCN2C(=O)[C@H]2CCCN2C(=O)[C@H](CCC(=O)OC(C)(C)C)NC(=O)CN(C)C(=O)[C@H](CC2CCCCC2)NC(=O)[C@H](CC(C)C)N(C)C(=O)[C@H](Cc2ccccc2)N(C)C1=O` (stereo partly drawn) [Compound 11] (cyclo([Cha][Sar]E(OtBu)[dP][ξP]NGL[NMeF][NMeL])), the Papp A→B at 90 min is over 10 ×10⁻⁶ cm/s under setting [1] and 16.2 ×10⁻⁶ cm/s under setting [2].

`CC(C)C[C@@H]1NC(=O)CNC(=O)[C@H](CC(N)=O)NC(=O)C2CCCN2C(=O)[C@H]2CCCN2C(=O)[C@H](CCC(=O)OC(C)(C)C)NC(=O)CN(C)C(=O)[C@H](CCCNC(N)=O)NC(=O)[C@H](CC(C)C)N(C)C(=O)[C@H](Cc2ccccc2)N(C)C1=O` (stereo partly drawn) [Compound 12] (cyclo([Cit][Sar]E(OtBu)[dP][ξP]NGL[NMeF][NMeL])): under setting [2], the Papp A→B at 90 min is 0.9 ×10⁻⁶ cm/s.
